Among the data in patent US20240199605A1, “SMALL MOLECULAR INHIBITORS OF NF-kB INDUCING KINASE” (Janssen Pharmaceutica NV, priority 2019, published 2024) are IC50 values, retold here.

Assay [1] deals with p-IKKα levels in L363 (NIK translocated multiple myeloma) cells. The assay is described as follows: Effect of compounds on p-IKKα levels in L363 cells (AlphaLISA SureFire Ultra). The assay is classed as cell-based, human. The note with it: Homo sapiens, L-363, 6 h, BAFF stimulated, MG132, 6 h, average of values, read-out: Assay 2 IC50. The method, then: Effect of Compounds on p-IKKα Levels in L363 (NIK Translocated Multiple Myeloma) Cells
All compounds tested were dissolved and serially diluted in DMSO, 1:3 dilution for 11 points in an Echo compatible plate. 100% DMSO was added to columns 12 and 24 of the plate to serve as high and low signal controls. This compound plate was used to spot 20 nL of compound or DMSO into a Greiner 384 well TC plate (781080). The final DMSO concentration was 0.3% (v/v) in cell assays. Human L363 cells (ATCC) were cultured in RPM11640 medium supplemented with GlutaMax, non-essential amino acids, sodium pyruvate and 10% fetal bovine serum. Cells were routinely maintained at densities of […] at 37° C. in a humidified 5% CO2 atmosphere incubator. Cells were passaged twice a week splitting back to obtain the low density. The day before the assay, cells were washed twice in HBSS (Hank's Balanced Salt Solution), resuspended in Dulbecco's Modified Eagle Medium (DMEM)+0.5% IgG and protease free BSA (Jackson Immuno Research Laboratories), +/−250 ng/ml recombinant human B-cell activating factor (BAFF/BLyS/TNFSF13B) and incubated overnight at 37° C. in a humidified 5% CO2 atmosphere (bulk stimulation with or without BAFF). The next day, the cell concentration was adjusted to 1×10^7 cells/ml in DMEM+/−250 ng/ml BAFF+/−10 μM MG132 and plated at 10 μl/well into compound or DMSO spotted 384 well TC plates. Seeded cells were incubated at 37° C. in a humidified 5% CO2 atmosphere for 6 h. After 6 h, the plates were removed from the incubator and cell lysis was achieved by the addition of 2.5 μl 5× lysis buffer containing protease and phosphatase inhibitors, followed by shaking on a plate shaker at room temperature for 15 min. At the end of this incubation, lysed cells were sequentially treated and incubated with acceptor and donor bead mixes according to the manufacturer's protocol for a 1 plate/2-incubation suspension cell assay (AlphaLISA SureFire Ultra p-IKKa (Ser 176/180) Assay Kit (Perkin Elmer). Plates were read using an EnVision® Multilabel Plate Reader (Perkin Elmer). Within an experiment, a concentration response curve for each compound was run in duplicate. The signal obtained in the test wells was normalized using high signal (BAFF stimulated cells, DMSO, MG132) and low signal (unstimulated cells, DMSO) controls. To determine the IC50, a sigmoidal curve was fitted to the plot of % inhibition versus Log10 compound concentration.

In assay [2] the target is recombinant human NF-kappaB-inducing kinase (NIK/MAP3K14) (Homo sapiens (Human), UniProt Q99558). The assay is described as follows: Inhibition of auto-phosphorylation of recombinant human NIK/MAP3K14 (AlphaScreen). The class given is biochemical. The note with it: NIK auto-phosphorylation, 5 μM ATP, 1 nM NIK, 2 h at 25° C.; average of values. The protocol:
Inhibition of auto-phosphorylation of recombinant human NF-kappaB-inducing kinase (NIK/MAP3K14) activity (AlphaScreen®)
NIK/MAP3K14 auto-phosphorylation activity was measured using the AlphaScreen® (αscreen) format (Perkin Elmer). All compounds tested were dissolved in dimethyl sulfoxide (DMSO) and further dilutions were made in assay buffer. The final DMSO concentration was 0.7% (v/v) in assays. The assay buffer was 50 mM Tris pH 7.5 containing 1 mM EGTA (ethylene glycol tetraacetic acid), 1 mM DTT (dithiothreitol), 0.1 mM Na3VO4, 5 mM MgCl2, and 0.01% Tween® 20. The assays were carried out in 384 well Proxiplates (Perkin Elmer). The incubations consisted of the compound, 5 μM Adenosine-5′-triphosphate (ATP), and 1 nM NIK/MAP3K14. Incubations were initiated by the addition of GST-tagged NIK/MAP3K14 enzyme, carried out for 2 h at 25° C. and terminated by addition of stop buffer containing anti-phospho-IKK Ser176/180 antibody. Protein A Acceptor and Glutathione-Donor beads were added before reading using an EnVision® Multilabel Plate Reader (Perkin Elmer). […] IC50's were determined by fitting a sigmoidal curve to % inhibition of control versus Log10 compound concentration.
In general terms: Bead proximity is the source of the signal in Alpha formats.

The structures appear in SMILES notation.

Chain of recombinant human NF-kappaB-inducing kinase (NIK/MAP3K14) (Q99558 whole entry): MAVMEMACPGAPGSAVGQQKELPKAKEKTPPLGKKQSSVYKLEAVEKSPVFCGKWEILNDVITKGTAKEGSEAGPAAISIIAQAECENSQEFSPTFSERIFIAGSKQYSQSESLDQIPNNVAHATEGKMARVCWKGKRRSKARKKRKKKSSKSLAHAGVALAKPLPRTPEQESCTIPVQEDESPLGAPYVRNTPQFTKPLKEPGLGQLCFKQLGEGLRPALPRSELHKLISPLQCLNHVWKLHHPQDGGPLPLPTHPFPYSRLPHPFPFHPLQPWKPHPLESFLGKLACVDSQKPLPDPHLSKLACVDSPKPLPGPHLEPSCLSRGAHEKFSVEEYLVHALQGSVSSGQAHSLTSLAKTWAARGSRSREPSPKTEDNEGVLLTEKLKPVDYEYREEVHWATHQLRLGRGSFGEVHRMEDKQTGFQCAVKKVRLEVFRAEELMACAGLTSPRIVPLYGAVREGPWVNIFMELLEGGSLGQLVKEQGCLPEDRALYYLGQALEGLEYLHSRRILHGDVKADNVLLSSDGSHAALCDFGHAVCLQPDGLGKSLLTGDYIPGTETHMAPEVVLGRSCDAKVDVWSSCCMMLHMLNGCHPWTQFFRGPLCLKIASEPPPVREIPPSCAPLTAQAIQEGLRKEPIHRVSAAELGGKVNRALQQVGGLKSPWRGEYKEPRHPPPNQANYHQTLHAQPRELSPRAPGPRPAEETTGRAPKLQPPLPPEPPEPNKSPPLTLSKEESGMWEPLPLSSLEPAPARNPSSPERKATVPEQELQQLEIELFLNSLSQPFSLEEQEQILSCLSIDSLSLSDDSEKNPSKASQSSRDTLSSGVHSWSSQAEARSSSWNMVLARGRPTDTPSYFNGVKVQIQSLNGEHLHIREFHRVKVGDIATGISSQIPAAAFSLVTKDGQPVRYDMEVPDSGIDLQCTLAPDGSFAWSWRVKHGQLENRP

For orientation: IC50 means the point on the concentration scale where inhibition reaches its midpoint. `CN1CC[C@@](O)(C#Cc2cccc(-c3ccc4ncnc(C#N)c4n3)c2)C1=O` [Example 279, (R)-6-(3-((3-Hydroxy-1-methyl-2-oxopyrrolidin-3-yl)ethynyl)phenyl)pyrido[3,2-d]pyrimidine-4-carbonitrile]: the IC50 was greater than 5000 nM in assay [1] and 1510 nM in assay [2].
In the same order, the values of `COc1ccc(C#C[C@]2(O)CCN(C)C2=O)cc1-c1ccc2nc(C)nc(N)c2n1` [Example 161, (R)-3-((3-(4-Amino-2-methylpyrido[3,2-d]pyrimidin-6-yl)-4-methoxyphenyl)ethynyl)-3-hydroxy-1-methylpyrrolidin-2-one] are 78 nM and 7 nM.
`CN1CC[C@@](O)(C#Cc2cccc(-c3ccc4ncnc(C(F)(F)F)c4n3)c2)C1=O` [Example 278, (R)-3-Hydroxy-1-methyl-3-((3-(4-(trifluoromethyl)pyrido[3,2-d]pyrimidin-6-yl)phenyl)ethynyl)pyrrolidin-2-one]: the IC50 was greater than 5000 nM in assay [1] and 170 nM in assay [2].
Turning to `Cc1ccc(C#C[C@]2(O)CCN(C)C2=O)cc1-c1ncc2ccnc(N)c2n1` [Example 43, (R)-3-((3-(8-Aminopyrido[3,4-d]pyrimidin-2-yl)-4-methylphenyl)ethynyl)-3-hydroxy-1-methylpyrrolidin-2-one], the IC50 in assay [1] was found to be 60 nM; in assay [2], 0.9 nM.
For `CN1CC[C@@](O)(C#Cc2ccc(OC(F)(F)F)c(-c3ccc4ncnc(N)c4n3)c2)C1=O` [Example 271, (R)-3-((3-(4-Aminopyrido[3,2-d]pyrimidin-6-yl)-4-(trifluoromethoxy)phenyl)ethynyl)-3-hydroxy-1-methylpyrrolidin-2-one], the IC50 in assay [1] came to 44 nM; in assay [2], 4.2 nM.
For `Nc1nccc2cnc(-c3cccc(C#CC4(O)CCN(CC(F)(F)F)C4=O)c3)nc12` (stereo in doubt) [Example 72, (R)-3-[2-[3-(8-Aminopyrido[3,4-d]pyrimidin-2-yl)phenyl]ethynyl]-3-hydroxy-1-(2,2,2-trifluoroethyl)pyrrolidin-2-one] the same measures were 910 nM and 8 nM.
With `Cc1nc(N)c2nc(-c3cccc(C#C[C@]4(O)C(=O)N(C)[C@H]5C[C@H]54)c3)ccc2n1` [Example 274, (1S,4S,5R)-4-((3-(4-Amino-2-methylpyrido[3,2-d]pyrimidin-6-yl)phenyl)ethynyl)-4-hydroxy-2-methyl-2-azabicyclo[3.1.0]hexan-3-one], the results for the IC50 in assay [1] and in assay [2] were greater than 5000 nM and 1930 nM, respectively.
In the same order, the values of `CN1CC[C@@](O)(C#Cc2cccc(-c3cc(Br)c4ncnc(N)c4n3)c2)C1=O` [Example 253, (R)-3-((3-(4-Amino-8-bromopyrido[3,2-d]pyrimidin-6-yl)phenyl)ethynyl)-3-hydroxy-1-methylpyrrolidin-2-one] are 5.1 nM and 0.4 nM.
For `Cc1nc(N)c2nc(-c3cccc(C#C[C@@](C)(O)c4ccccn4)c3)ccc2n1` [Example 190, (R)-4-[3-(4-Amino-2-methyl-pyrido[3,2-d]pyrimidin-6-yl)phenyl]-2-(2-pyridyl)but-3-yn-2-ol] the same measures were greater than 5000 nM and 1830 nM.
For `Cc1cc([C@](C)(O)C#Cc2cccc(-c3ccc4ncnc(N)c4n3)c2)no1` [Example 95, (R)-4-(3-(4-Aminopyrido[3,2-d]pyrimidin-6-yl)phenyl)-2-(5-methylisoxazol-3-yl)but-3-yn-2-ol] the same measures were 28 nM and 0.8 nM.
Consider `CN1CC[C@@](O)(C#Cc2cccc(-c3cc(-c4ccccc4)c4ncnc(N)c4n3)c2)C1=O` [Example 310, (R)-3-((3-(4-Amino-8-phenylpyrido[3,2-d]pyrimidin-6-yl)phenyl)ethynyl)-3-hydroxy-1-methylpyrrolidin-2-one], for which the values for the IC50 in assay [1] and in assay [2] were 13 nM and 0.7 nM, respectively.
Consider `CN1CC[C@@](O)(C#Cc2cccc(-c3ccc4c(C#N)cnc(N)c4n3)c2)C1=O` [Example 118, (R)-8-Amino-2-[3-[2-(3-hydroxy-1-methyl-2-oxo-pyrrolidin-3-yl)ethynyl]phenyl]-1,7-naphthyridine-5-carbonitrile], for which the IC50 in assay [1] was 1.5 nM; in assay [2], no more than 0.5 nM.
With `Cc1cc2cnc(-c3cccc(C#C[C@]4(O)CCc5cccnc54)c3)nc2c(N)n1` [Example 63, (R)-7-((3-(8-amino-6-methylpyrido[3,4-d]pyrimidin-2-yl)phenyl)ethynyl)-6,7-dihydro-5H-cyclopenta[b]pyridin-7-ol], the IC50 turned out to be 140 nM in assay [1] and 1.4 nM in assay [2].
In the same order, the values of `COc1ccc(C#C[C@]2(O)CCN(C)C2=O)cc1-c1ccc2ncnc(N)c2n1` [Example 139, (R)-3-((3-(4-Aminopyrido[3,2-d]pyrimidin-6-yl)-4-methoxyphenyl)ethynyl)-3-hydroxy-1-methylpyrrolidin-2-one] are 22 nM and 2.9 nM.
In the same order, the values of `Cc1nc(-c2cccc(C#C[C@]3(O)CCN(C)C3=O)c2)nc2c(N)ncnc12` [Example 4, (R)-3-((3-(8-Amino-4-methylpyrimido[5,4-d]pyrimidin-2-yl)phenyl)ethynyl)-3-hydroxy-1-methylpyrrolidin-2-one] are 5.4 nM and 0.8 nM.
For the compound `COc1ccc(C#C[C@]2(O)CCN(C)C2=O)cc1-c1ncc2ccnc(N)c2n1` [Example 53, (R)-3-((3-(8-Aminopyrido[3,4-d]pyrimidin-2-yl)-4-methoxyphenyl)ethynyl)-3-hydroxy-1-methylpyrrolidin-2-one], the IC50 in assay [1] is 49 nM; in assay [2] it was 2 nM.
For `CC(=O)Nc1nc(C)nc2ccc(-c3cccc(C#C[C@]4(O)CCN(C)C4=O)c3)nc12` [Example 258, (R)—N-(6-(3-((3-Hydroxy-1-methyl-2-oxopyrrolidin-3-yl)ethynyl)phenyl)-2-methylpyrido[3,2-d]pyrimidin-4-yl)acetamide] the same measures were 450 nM and 210 nM.
For `CN1CC[C@@](O)(C#Cc2cccc(-c3ccc4ccnc(N5CCC5)c4n3)c2)C1=O` [Example 233, (R)-3-((3-(8-(Azetidin-1-yl)-1,7-naphthyridin-2-yl)phenyl)ethynyl)-3-hydroxy-1-methylpyrrolidin-2-one] the same measures were greater than 5000 nM and 520 nM.
Take `CN1CC[C@@](O)(C#Cc2cccc(-c3cc(C(F)(F)F)c4ncnc(N)c4n3)c2)C1=O` [Example 284, (R)-3-((3-(4-Amino-8-(trifluoromethyl)pyrido[3,2-d]pyrimidin-6-yl)phenyl)ethynyl)-3-hydroxy-1-methylpyrrolidin-2-one]: the IC50 was determined as 2.8 nM in assay [1] and 0.7 nM in assay [2].
In the same order, the values of `Cc1nc(N)c2nc(-c3cccc(C#C[C@@](C)(O)c4scnc4C)c3)ccc2n1` [Example 163, (R)-4-(3-(4-Amino-2-methylpyrido[3,2-d]pyrimidin-6-yl)phenyl)-2-(4-methylthiazol-5-yl)but-3-yn-2-ol] are greater than 5000 nM and 350 nM.
As for `Cc1nnc([C@](C)(O)C#Cc2cccc(-c3ccc4ncnc(N)c4n3)c2)o1` [Example 97, (R)-4-(3-(4-Aminopyrido[3,2-d]pyrimidin-6-yl)phenyl)-2-(5-methyl-1,3,4-oxadiazol-2-yl)but-3-yn-2-ol], the IC50 in assay [1] was 46 nM; in assay [2], 0.8 nM.
